Measurements taken from patent publication US9149455B2, “Methods of treating melanoma” (Abraxis BioScience, LLC, priority 2012, dated 2015).

Legend:
[1] = system: stage IV cutaneous metastatic malignant melanoma; experiment: Phase 3 study of Nab-paclitaxel versus dacarbazine in chemotherapy-naive patients, efficacy; assay type: in vivo, human
Source text: Chemotherapy-naïve patients with stage IV cutaneous metastatic malignant melanoma were enrolled. The patients had Eastern Cooperative Oncology Group (ECOG) PS 0-1, measurable disease, and lactate dehydrogenase (LDH) levels ≦2.0× Upper Limit of Normal (ULN), and had no current brain metastases.
The primary efficacy endpoint was progression-free survival (“PFS”) based on a blinded radiology assessment (according to Response Evaluation Criteria in Solid Tumors (“RECIST”) v1.0). The secondary efficacy endpoint was overall survival (“OS”). Other endpoints included objective response rate (“ORR”), disease control rate (“DCR”), and safety/tolerability.

[2] = Phase 3 study of Nab-paclitaxel versus dacarbazine, treatment-related adverse events; assay type: in vivo, human
metastatic melanoma = settings: advanced melanoma; Finn L et al., BMC Medicine 2012; cited from earlier work
[3] = Grade ≧3 treatment-related adverse events

Molecule: CN(C)/N=N/c1[nH]cnc1C(N)=O [Dacarbazine, dacarbazine]
- Median OS (interim) ([1]; BRAF V600E Mutation subgroup): 11.2 months
- Median PFS ([1]; BRAF V600E Mutation subgroup): 3.5 months
- Median OS (interim) ([1]; BRAF Wild Type subgroup): 11.1 months
- Median PFS ([1]; BRAF Wild Type subgroup): 2.5 months
- Median OS (interim) ([1]; BRAF status Unknown subgroup): 9.9 months
- Median PFS ([1]; BRAF status Unknown subgroup): 2.2 months
- progression free survival (PFS) by independent radiology review ([1]; all patients, Nab-paclitaxel 150 mg/m^2 iv days 1, 8, 15 of 28-day cycle vs dacarbazine 1000 mg/m^2 iv day 1 of 21-day cycle, RECIST v1.0, P=0.044): 2.5 months
- Median OS, planned interim analysis ([1]; all patients, at time of PFS analysis, 64% of patients had an event): 10.7 months
- Best Response: Not Evaluable ([1]; blinded radiology assessment): 25%
- Best Response: PD ([1]; blinded radiology assessment): 48%
- Best Response: SD ([1]; blinded radiology assessment): 16%
- DCR ([1]; blinded radiology assessment): 27%
- ORR ([1]; blinded radiology assessment): 11%
- PR (listed under DCR) ([1]; blinded radiology assessment): 11%
- Best Response: PR ([1]; blinded radiology assessment, confirmed): 11%
- Alopecia ([2]; Grade ≧3 TRAE): 0%
- Anemia ([2]; Grade ≧3 TRAE): 5%
- Fatigue ([2]; Grade ≧3 TRAE): 2%
- Leukopenia ([2]; Grade ≧3 TRAE): 7%
- Lymphocytopenia ([2]; Grade ≧3 TRAE): 11%
- Neutropenia ([2]; Grade ≧3 TRAE): 10%
- Peripheral Neuropathy ([2]; Grade ≧3 TRAE): 0%
- Thrombocytopenia ([2]; Grade ≧3 TRAE): 6%
- Patients with at least 1 TRAE [2, 3]: 28%
- Patients with at least 1 serious TRAE [2, 3]: 7%

Molecule: CCCS(=O)(=O)Nc1ccc(F)c(C(=O)c2c[nH]c3ncc(-c4ccc(Cl)cc4)cc23)c1F [vemurafenib]
- toxicity (metastatic melanoma): low toxicity

Molecule: Ipilmumab: anti-CTLA-4 antibody, FDA approved 2011 for advanced melanoma
- improvement of median survival time (metastatic melanoma): two
